# Molecular target: T1, Recombinant human LTC4 synthase (Homo sapiens, UniProt Q16873)
# T1 construct: made in house; host or cells: Pichia pastoris
# T1 sequence (Q16873 1-150): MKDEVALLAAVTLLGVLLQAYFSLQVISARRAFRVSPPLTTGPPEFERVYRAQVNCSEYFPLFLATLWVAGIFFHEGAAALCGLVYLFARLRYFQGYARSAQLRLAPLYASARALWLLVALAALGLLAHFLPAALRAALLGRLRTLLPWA
# Assay: LTC4 synthase in vitro assay (HTRF detection of LTC4)
# Type: biochemical
# Details: total concentration of title compound in the assay 10 μM; HTRF method
# Procedure: Alternatively HTRF detection of LTC4 can be used:
# In the assay, LTC4 synthase catalyses the reaction where the substrate LTA4 is converted to LTC4. Recombinant human LTC4 synthase is expressed in Piccia pastoralis and the purified enzyme is dissolved in 25 mM Tris-buffer pH 7.8 supplemented with 0.1 mM glutathione (GSH) and stored at −80° C. The assay is performed in phosphate buffered saline (PBS) pH 7.4 and 5 mM GSH in 384-well plates.
# The following is added chronologically to each well: • 1. 48 μl LTC4 synthase in PBS with 5 mM GSH. The total protein concentration in this solution is 0.5 μg/ml. • 2. […] Incubation of the plate at room temperature for 10 minutes. • 4. 1 μl LTA4 (final conc. 2.5 μM). • 5. Incubation of the plate at room temperature for 5 minutes. • 6. 10 μl of the incubation mixture is analysed using homogeneous time resolved fluorescent (HTRF) detection.
inhibition at 10 µM [%],Structure (SMILES),% inh. [%]
100,"CCOc1c(Cl)cc(C(F)(F)F)cc1C(=O)Nc1ccc(Oc2ccc(NC(=O)c3ccc(OC(C)C)cc3)c(C(=O)O)c2)cc1CC(=O)O [6:7, 5-[3-carboxymethyl-4-(3-chloro-2-ethoxy-5-tri-fluoromethylbenzoyl-amino)phenoxy]-2-(4-isopropoxybenzoyl-amino)benzoic acid]",
93,"O=C(Nc1ccc(Oc2ccc([N+](=O)[O-])cc2)cc1C(=O)O)c1ccc(Cl)cc1Cl [8:2, 2-(2,4-dichlorobenzamido)-5-(4-nitrophenoxy)benzoic acid]",
97,"CN(c1cc(Oc2ccc(NS(=O)(=O)c3cccc(Cl)c3Cl)cc2)cc(C(=O)O)c1)c1ccc(F)c(F)c1 [18:1, 3-[4-(2,3-dichloro-benzenesulfonylamino)-phenoxy]-5-[(3,4-difluoro-phenyl)-methyl-amino]-benzoic acid]",
99,"COc1cc(Cl)ccc1C(=O)Nc1ccc(Oc2ccc(NC(=O)c3ccc(C(C)(C)C)cc3)cc2)cc1C(=O)O [8:19, 5-[4-(4-tert-Butylbenzoyl-amino)phenoxy]-2-(4-chloro-2-methoxybenzoylamino)-benzoic acid]",
,"O=C(Nc1ccc(Oc2ccc(NC(=O)c3cc(Cl)ccc3O)cc2)cc1C(=O)O)c1ccc(C(F)(F)F)cc1 [8:3, 5-[4-(5-chloro-2-hydroxybenzoylamino)phenoxy]-2-(4-trifluoro-methylbenzoylamino)-benzoic acid]",96
,"O=C(Nc1ccc(Oc2ccc(NC(=O)c3cc(Cl)ccc3F)c(C(=O)O)c2)cc1C(=O)O)c1cccc(Cl)c1 [2:2, 5-[3-carboxy-4-(3-chloro-6-fluorobenz-amido)phenyloxy]-2-(3-chlorobenz-amido)benzoic acid]",100
,"O=C(Nc1ccc(Oc2cccc(S(=O)(=O)Nc3ccc(F)c(F)c3)c2)cc1C(=O)O)c1ccc(Cl)cc1Cl [19:3, 2-(2,4-Dichloro-benzoylamino)-5-[3-(3,4-difluoro-phenylsufamoyl)-phenoxy]-benzoic acid]",100
99,"O=C(O)Cc1cc(Oc2ccc(NC(=O)c3ccccc3)cc2)ccc1NC(=O)c1cccc(Cl)c1Cl [17:2, [5-(4-benzoylamino-phenoxy)-2-(2,3-dichloro-benzoylamino)-phenyl]-acetic acid]",
96,"O=C(O)c1cc(Oc2ccc(Nc3ccc(Cl)cc3)cc2)ccc1Nc1ccc(Cl)cc1 [12:5, 2-(4-chloro-phenylamino)-5-[4-(4-chloro-phenylamino)-phenoxy]-benzoic acid]",
23,"CCCCc1ccc(C(=O)Nc2ccc(Oc3ccc(NS(=O)(=O)c4ccc5c(c4)CNCC5)c(CC(=O)O)c3)cc2)cc1 [17:6, [5-[4-(4-butyl-benzoylamino)-phenoxy]-2-(1,2,3,4-tetrahydro-isoquinoline-7-sulfonylamino)-phenyl]-acetic acid]",
100,"CCCCc1ccc(C(=O)Nc2ccc(Oc3ccc(NC(=O)c4ccccc4)c(C(=O)O)c3)cc2C(=O)O)cc1 [5:1, 5-[3-carboxy-4-(4-butylbenzamido)-phenyloxy]-2-benzamidobenzoic acid]",
,"O=C(Nc1ccc([S+]([O-])c2ccc(NC(=O)c3ccc(C(F)(F)F)cc3)c(C(=O)O)c2)cc1C(=O)O)c1ccc(C(F)(F)F)cc1 [15:3, 2-(4-(trifluoromethyl)benz-amido)-5-((4-(4-(trifluoromethyl)benzamido)-3-carboxy-phenyl)sulfinyl)benzoic acid]",99
99,"COc1ccc(S(=O)(=O)N(C)c2ccc(Oc3ccc(NC(=O)c4cc(Cl)ccc4Cl)c(C(=O)O)c3)cc2)cc1 [11:15, 2-(2,5-Dichloro-benzoylamino)-5-{4-[(4-methoxy-benzenesulfonyl)-methyl-amino]-phenoxy}-benzoic acid]",
,CCCCc1ccc(C(=O)Nc2ccc(Oc3ccc(NS(=O)(=O)c4ccccc4)c(C(=O)O)c3)cc2C(=O)O)cc1 [Example 7:2],100
100,"O=C(O)c1cc(Nc2ccc(F)c(F)c2)cc(Oc2ccc(NC(=O)c3cccc(Cl)c3)cc2)c1 [18:5, 3-[4-(3-Chloro-benzoylamino)-phenoxy]-5-(3,4-difluoro-phenylamino)-benzoic acid]",
,"CCCCc1ccc(C(=O)Nc2ccc(Oc3ccc(N(C)C(=O)c4ccc(CCCC)cc4)cc3)cc2C(=O)O)cc1 [9:1, 5-(4-((N-methyl)-4-butylbenz-amido)phenoxy)-2-(4-butylbenz-amido)benzoic acid]",100
99,"COc1ccc(S(=O)(=O)Nc2ccc(Oc3ccc(N(C)C(=O)c4ccc(C(C)(C)C)cc4)cc3)cc2C(=O)O)cc1 [21:3, 5-{4-[(4-t-Butyl-benzoyl)-methyl-amino]-phenoxy}-2-(4-methoxy-benzenesulfonylamino)-benzoic acid]",
100,"O=C(Nc1ccc([S+]([O-])c2ccc(NC(=O)c3cccc(Cl)c3)c(C(=O)O)c2)cc1C(=O)O)c1cccc(Cl)c1 [15:2, 2-(3-chlorobenzamido)-5-(4-(3-chlorobenzamido)-3-carboxyphenylsulfinyl)benzoic acid]",
99,"O=C(O)c1cc(Sc2ccc(Nc3ccc(F)c(F)c3)cc2)ccc1Nc1ccc(F)c(F)c1 [Example 14:2, 2-(3,4-difluorophenylamino)-5-[4-(3,4-difluoro-phenylamino)-phenylsulfanyl]-benzoic acid]",
97,"O=C(O)c1cc(Oc2ccc(Nc3ccc(F)c(F)c3)cn2)ccc1Nc1ccc(F)c(F)c1 [Example 33:1, 2-(3,4-Difluorophenylamino)-5-[5-(3,4-difluorophenylamino)pyridin-2-yloxy]-benzoic acid]",
98,"O=C(O)c1cc(Oc2ccc(Nc3cc(C(F)(F)F)ccc3Cl)c(C(=O)O)c2)ccc1Nc1ccc(F)c(F)c1 [1:1, 5-(3-carboxy-4-(2-chloro-5-trifluoromethylphenylamino)-phenyloxy)-2-(3,4-difluoro-phenylamino)benzoic acid]",
67,"O=C(Nc1ccc(Oc2ccc(NC(=O)c3ccc(OC(F)(F)F)cc3)c(C(=O)O)c2)cc1)c1ccccc1 [8:10, 5-(4-benzoylaminophenoxy)-2-(4-trifluoromethoxy-benzoylamino)benzoic acid]",
100,"O=C(O)c1cc(Sc2ccc(NS(=O)(=O)c3ccc(Cl)cc3)cc2)ccc1NS(=O)(=O)c1ccc(Cl)cc1 [14:4, 2-(4-chloro-benzenesulfonyl-amino)-5-[4-(4-chloro-benzenesulfonylamino)-phenylsulfanyl]-benzoic acid]",
94,"COc1ccc(S(=O)(=O)N(C)c2ccc(Oc3ccc(NC(=O)c4c(F)cccc4F)c(C(=O)O)c3)cc2)cc1 [11:16, 2-(2,6-Difluoro-benzoylamino)-5-{4-[(4-methoxy-benzenesulfonyl)-methyl-amino]-phenoxy}-benzoic acid]",
99,"CCCCc1ccc(C(=O)Nc2ccc(Oc3ccc(NC(=O)c4ccc(CCCC)cc4)c(C(=O)O)c3)cc2C(=O)O)cc1 [4:1, 5-[3-carboxy-4-(4-butyl-benzamido)phenyloxy]-2-(4-butylbenzamido)benzoic acid]",
96,"CC(C)(C)c1ccc(C(=O)Nc2ccc(Oc3ccc(NC(=O)c4ccc(Cl)nc4Cl)c(C(=O)O)c3)cc2)cc1 [8:20, 5-[4-(4-tert-Butylbenzoyl-amino)phenoxy]-2-[(2,6-di-chloropyridine-3-carbonyl)-amino]benzoic acid]",
100,"O=C(Nc1ccc(Sc2ccc(NS(=O)(=O)c3ccc(Cl)cc3F)c(C(=O)O)c2)cc1)c1ccc(C(F)(F)F)cc1 [Example 35:2, 2-(4-Chloro-2-fluoro-benzenesulfonylamino)-5-[4-(4-trifluoromethylbenzoylamino)-phenylsulfanyl]benzoic acid]",
,"CCCCc1ccc(C(=O)Nc2ccc(Oc3ccc(NC(=O)c4ccc(F)cc4Cl)c(C(=O)O)c3)cc2C(=O)O)cc1 [2:8, 5-[3-carboxy-4-(2-chloro-4-fluorobenz-amido)-phenyloxy]-2-(4-butylbenz-amido)benzoic acid]",100
99,"CC(C)(C)c1ccc(C(=O)Nc2ccc(Oc3ccc(NC(=O)c4cccnc4Cl)c(C(=O)O)c3)cc2)cc1 [8:16, 5-[4-(4-tert-Butylbenzoyl-amino)phenoxy]-2-[(2-chloro-pyridine-3-carbonyl)-amino]benzoic acid]",
100,"O=C(Nc1ccc(Oc2ccc(S(=O)(=O)Nc3ccc(F)c(F)c3)cc2)cc1C(=O)O)c1ccc(Cl)cc1Cl [25:4, 2-(2,4-Dichlorobenzoylamino)-5-[4-(3,4-difluorophenylsulfamoyl)-phenoxy]benzoic acid]",

Structure (SMILES),inhibition at 10 µM [%],% inh. [%]
"CCCCOc1ccc(S(=O)(=O)Nc2ccc(Oc3cccc(CC(=O)NS(=O)(=O)c4cccc(Cl)c4F)c3)cc2C(=O)O)cc1 [26:5, 2-(4-Butoxybenzenesulfonylamino)-5-{3-[2-(3-chloro-2-fluorobenzene-sulfonylamino)-2-oxoethyl]phenoxy}-benzoic acid]",99,
"CCCCOc1ccc(S(=O)(=O)Nc2ccc(Oc3cccc(CC(=O)NS(=O)(=O)c4ccc(F)c(F)c4)c3)cc2C(=O)O)cc1 [26:4, 2-(4-Butoxybenzenesulfonylamino)-5-{3-[2-(3,4-difluorobenzenesulfonyl-amino)-2-oxoethyl]phenoxy}benzoic acid]",95,

# From US20110071197A1, “BIS-ARYL COMPOUNDS FOR USE AS MEDICAMENTS” (priority 2008, published 2011)
